Results as given in patent US6696484B2, “Method and compositions for regulation of 5-alpha reductase activity” (University of Chicago Office of Technology and Intellectual …, priority 1997, dated 2004).
pIC50: −log10 of the molar value. “And” between values parts separate entries of the source, which are not always exact repeats. Equal entries are not always repeated.

Experiments:
[1] = molecular target: T1, type 2 human 5α-reductase (Homo sapiens, UniProt P31213); assay: Cell-free enzymatic assay of 5α-reductase (testosterone to DHT), type 2; format: biochemical; set-up: expressed in transfected cells; host or cells: rat 1A cells infected with pMV7 retrovirus and selected with G418; microsomes for the cell-free assay; settings: for pIC50: microsomes from rat 1A cells expressing human type 2 5α-reductase, read-out: Cell-free assay IC50, 5α-reductase Type 2; for inhibition at 100 µM: read-out: percent inhibition of 5α-reductase activity, cell-free assay, Type 2, 100 μM compound
T1 sequence (P31213 1-254): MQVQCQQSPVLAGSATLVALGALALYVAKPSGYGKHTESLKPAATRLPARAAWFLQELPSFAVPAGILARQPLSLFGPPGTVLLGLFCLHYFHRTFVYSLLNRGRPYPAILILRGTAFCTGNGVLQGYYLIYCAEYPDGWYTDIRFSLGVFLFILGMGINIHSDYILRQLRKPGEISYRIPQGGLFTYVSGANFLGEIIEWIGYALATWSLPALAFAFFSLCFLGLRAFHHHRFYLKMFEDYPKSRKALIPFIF

[2] = molecular target: T2, type 1 human 5α-reductase (Homo sapiens, UniProt P18405); assay: Whole-cell assay of 5α-reductase, type 1; format: cell-based; set-up: expressed in transfected cells; host or cells: rat 1A cells infected with pMV7 retrovirus and selected with G418; microsomes for the cell-free assay, intact cells for the whole-cell assay; settings: for pIC50: rat 1A cells expressing human type 1 5α-reductase; for inhibition at 100 µM: read-out: percent inhibition of 5α-reductase activity, whole-cell assay, Type 1
T2 sequence (P18405 1-259): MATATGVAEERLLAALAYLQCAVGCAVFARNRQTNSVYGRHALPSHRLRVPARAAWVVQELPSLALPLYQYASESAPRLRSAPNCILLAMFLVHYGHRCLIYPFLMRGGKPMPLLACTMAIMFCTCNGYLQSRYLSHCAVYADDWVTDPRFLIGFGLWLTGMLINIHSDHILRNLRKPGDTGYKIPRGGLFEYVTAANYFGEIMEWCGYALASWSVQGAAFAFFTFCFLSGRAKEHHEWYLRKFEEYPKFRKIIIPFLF

[3] = molecular target: T2, type 1 human 5α-reductase; assay: Cell-free enzymatic assay of 5α-reductase (testosterone to DHT), type 1; settings: for inhibition at 100 µM: read-out: percent inhibition of 5α-reductase activity, cell-free assay, Type 1, 100 μM compound; for percent inhibition of 5α-reductase activity, cell-free assay, Type 1: 100 μM compound
[4] = molecular target: T1, type 2 human 5α-reductase; assay: Whole-cell assay of 5α-reductase, type 2; format: cell-based; set-up: expressed in transfected cells; host or cells: rat 1A cells infected with pMV7 retrovirus and selected with G418; intact cells for the whole-cell assay; settings: for pIC50: rat 1A cells expressing human type 2 5α-reductase; for inhibition at 100 µM: read-out: percent inhibition of 5α-reductase activity, whole-cell assay, Type 2, 100 μM compound
[5] = test system: 5α-reductase; assay: Cell-free 5α-reductase assay, isozyme not given; format: biochemical, human; settings: isozyme not stated
[6] = test system: hamster flank organ; assay: Testosterone-stimulated growth of the pigmented macules of hamster flank organs; format: in vivo, Syrian golden hamsters; settings: 0.5 μg testosterone + 1 mg compound topically daily, 18 days; for Pigmented macule area: castrated male hamsters, mean±SEM;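 on all read-outs here: prepubertal Syrian golden hamsters castrated at 4 weeks, ethanol vehicle on one flank organ, macule long and short axes gauged by caliper 1 day after final dose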
[7] = test system: hamster flank organ; assay: DHT-stimulated growth of the pigmented macules of hamster flank organs; format: in vivo, Syrian golden hamsters
Method: Prepubertal male Syrian golden hamsters, castrated at 4 weeks of age, were obtained from Harlan Sprague-Dawley Co. (Madison, Wis.). Bilateral orchiectomy was performed under anesthesia. The hamsters were housed individually in plastic cages and had free access to Purina rodent chow and water, and were maintained on a 12-h light/12-h dark cycle. Hamsters were used 1-2 weeks after castration and were divided into groups of 4-6 or 9-11 animals. Hair on the lower back of each animal was shaved weekly with an electric hair clipper to expose the flank organs. A treatment solution (5 μl with ethanol as vehicle) was applied topically to the flank organ once a day using a Pipetteman and a polypropylene disposable tip. The treatment solution contained either (a) ethanol alone, (b) an androgen (testosterone or DHT), (c) a test compound, or (d) a combination of an androgen and a test compound. For each hamster, one flank organ was treated while the other organ was not treated. The surface of the flank organ was wiped with an alcohol pad to remove residual compound before each treatment. At the end of each experiment (18 days), animals were killed by CO2 asphyxiation or an intraperitoneal injection of […]. Flank organs from both the treated and untreated sides were examined 1 day after the last treatment by the methods described below. The body weight of each animal was recorded before and after treatment. Experiments were repeated at least twice to assure reproducibility. The “Guide for the care and use of laboratory animals” (NIH publication no. 85-28, revised 1988) and the regulations of the U.S. Department of Agriculture were followed throughout the experiments.
In this study, the growth of the flank organ was determined by measuring the length of the long axis and the short axis of the pigmented spot (pigmented macule) with a caliper with a digital display (Digimatic; Mitutoyo Corporation, Japan). The surface area (in millimeters squared) of the spot was calculated as the product of the long axis and the short axis (Gomez and Frost 1975). The areas of the pigmented spots after treatment with ethanol alone or with test compound (in ethanol) alone were less than 10% of the areas of the pigmented spots after treatment with testosterone alone. These values were deducted from the experimental values and are compared in Tables 8-10. For each experiment, the means and standard error of the means (SEM) of the areas of the untreated and treated macules were computed separately for each treatment group. Within each experiment, an overall F-test (one way ANOVA) was used to test the null hypothesis that the mean sizes of the treated macules were the same in all groups, and Dunnett's multiple range test was used to examine differences between the treatment groups (i.e., green tea catechin+androgen, fatty acid+androgen, EGC derivative+androgen, or fatty acid derivative+androgen) and the control group (androgen treatment only). The Mann-Whitney test was used to examine differences between DHT-treated and the DHT and EGCG-treated groups. P-values <0.05 were taken as indicating statistical significance in all tests (Hochberg and Tamhane 1987).
Each group comprised four to six castrated male hamsters. At the end of the treatment period, the areas of the pigmented macules were determined and are presented as means±SEM in Table 8.
Each group comprised four to six castrated male hamsters. At the end of the treatment period, the areas of the pigmented macules were determined and are expressed as means±SEM as shown in Table 10.

O=C1C=CC(=C(c2ccc(O)c(O)c2)c2ccccc2S(=O)(=O)O)C=C1O (mixture of isomers) [Pyrocatechol violet, pyrocatecholsulfonephthalein]
pIC50 [1]: 4.00

O=C1c2ccccc2C(=O)c2c1cc(S(=O)(=O)[O-])c(O)c2O.[Na+] [Alizarin red S]
percent inhibition of 5α-reductase activity, whole-cell assay, Type 1 ([2]; 100 μM compound): 22%

CC/C=C\C/C=C\C/C=C\CCCCCCCC(=O)O [Alpha-Linolenic Acid, Alpha-Linolenic Acid C18:3 CIS 9,12,15]
pIC50 [3]: 5.10 | inhibition at 100 µM [3]: 99% | pIC50 [1]: 5.05 | inhibition at 100 µM [1]: 84% | pIC50 [4]: 4.64 | inhibition at 100 µM [4]: 86% | pIC50 [2]: 4.54 | inhibition at 100 µM ([2]; 100 μM compound): 82%

O=C1c2ccccc2C(=O)c2ccccc21 [Anthraquinone]
pIC50 [5]: < 4.00

O=C(/C=C/c1ccc(O)c(O)c1)OCCc1ccccc1 [Caffeic acid phenethyl ester]
pIC50 [5]: 4.60 | inhibition at 100 µM [3]: 97% | inhibition at 100 µM [1]: 36% | inhibition at 100 µM [4]: 98% | inhibition at 100 µM ([2]; 100 μM compound): 99%

O=c1cc(-c2ccccc2)oc2cc(O)cc(O)c12 [Chrysin]
inhibition at 100 µM [3]: 2% | inhibition at 100 µM [1]: 1%

COc1cc(/C=C/CO)ccc1O [Coniferol, coniferyl alcohol]
inhibition at 100 µM [3]: 10% | pIC50 [1]: 4.00 | inhibition at 100 µM [1]: 49%

COc1cc(/C=C/C(=O)CC(=O)/C=C/c2ccc(O)c(OC)c2)ccc1O [Curcumin]
Inhibition (percent decrease in macule area vs androgen-treated macules) [6]: 87% | Pigmented macule area [6]: 2.40 ± 0.65 mm^2 | Inhibition (percent decrease in macule area vs androgen-treated macules) ([7]; 0.5 μg DHT + 1 mg compound topically daily, 18 days): 31% | Pigmented macule area ([7]; 0.5 μg DHT + 1 mg compound topically daily, 18 days, mean±SEM): 9.50 ± 0.21 mm^2

C[C@]12CCC(=O)C[C@@H]1CC[C@@H]1[C@@H]2CC[C@]2(C)[C@@H](O)CC[C@@H]12 [DHT, 5α-dihydrotestosterone, reference compound]
Pigmented macule area, androgen alone (control) ([7]; 0.5 μg DHT alone topically daily, 18 days, mean±SEM): 20.80 ± 1.10 mm^2 and 13.67 ± 0.96 mm^2 | stimulation of flank organ growth relative to the maximum stimulation ([7]; 0.5 μg DHT per flank organ per day): 50-70%

COc1cc(CCC(=O)CC(=O)CCc2ccc(O)cc2)ccc1O [Demethoxytetrahydrocurcumin, demethoxytetrahydrocurcumin]
percent inhibition of 5α-reductase activity, cell-free assay, Type 1 [3]: 23%

CCCC/C=C\CCCCCCCC(=O)O[C@@H]1Cc2c(O)cc(O)cc2O[C@@H]1c1cc(O)c(O)c(O)c1 [EGC-myristoleate, EGC-3-myristoleate]
Inhibition (percent decrease in macule area vs androgen-treated macules) [6]: 71% | Pigmented macule area [6]: 5.00 ± 0.42 mm^2 | Inhibition (percent decrease in macule area vs androgen-treated macules) ([6]; listed as EGC-3 ester of MA): about 70% | pIC50 [4]: > 4.82 | pIC50 [2]: > 4.82

CCCCC/C=C\C/C=C\C/C=C\CCCCC(=O)O[C@@H]1Cc2c(O)cc(O)cc2O[C@@H]1c1cc(O)c(O)c(O)c1 [EGC-γ-linoleneate acid, EGC-γ-linoleneate]
Inhibition (percent decrease in macule area vs androgen-treated macules) [6]: 68% | Pigmented macule area [6]: 5.50 ± 0.56 mm^2 | Inhibition (percent decrease in macule area vs androgen-treated macules) ([6]; listed as EGC-3 ester of γ-LA): about 70% | pIC50 [4]: > 4.82 | pIC50 [2]: > 4.82

O=c1oc2c(O)c(O)cc3c(=O)oc4c(O)c(O)cc1c4c23 [Ellagic acid]
pIC50 [5]: < 4.00

O=c1ccc2cc(O)c(O)cc2o1 [Esculetin, 6,7-dihydroxycoumarin]
pIC50 [5]: < 4.00 | inhibition at 100 µM [3]: 7% | inhibition at 100 µM [1]: 13%

C=CCc1ccc(O)c(OC)c1 [Eugenol]
pIC50 [1]: 4.00

COc1cc2ccc(=O)oc2c(O)c1O [Fraxetin, 7,8-dihydroxy-6-methoxycoumarin]
pIC50 [5]: < 4.00 | inhibition at 100 µM [3]: 2% | inhibition at 100 µM [1]: 8%

CCCCC/C=C\C/C=C\C/C=C\CCCCC(=O)O [Gamma-Linolenic Acid, Gamma-Linolenic Acid C18:3 CIS 6.9,12]
Inhibition (percent decrease in macule area vs androgen-treated macules) [6]: 82% | Pigmented macule area [6]: 3.15 ± 0.42 mm^2

CCCCC/C=C\C/C=C\CCCCCCCC(=O)O [Linoleic Acid, Linoleic Acid C18:2 CIS 9,12]
inhibition at 100 µM [3]: 99% | inhibition at 100 µM [1]: 85% | inhibition at 100 µM [4]: 77% | inhibition at 100 µM ([2]; 100 μM compound): 78%

O=c1c(O)c(-c2ccc(O)cc2O)oc2cc(O)cc(O)c12 [Morin]
inhibition at 100 µM [3]: 6% | inhibition at 100 µM [1]: 33%

CC(Cc1ccc(O)c(O)c1)C(C)Cc1ccc(O)c(O)c1 (centres unmarked) [Nordihydroguaiaretic acid]
pIC50 [3]: 4.72 | inhibition at 100 µM [1]: 80% | pIC50 [2]: 4.72

O=C1c2ccccc2C(=O)c2c(O)c(O)cc(O)c21 [Purpurin]
inhibition at 100 µM [3]: 95% | inhibition at 100 µM [1]: 20%

O=c1c(O)cccc2cc(O)c(O)c(O)c12 [Purpurogallin]
inhibition at 100 µM [3]: 81% | inhibition at 100 µM [1]: 31%

O=c1ccc2c(-c3ccccc3S(=O)(=O)O)c3ccc(O)c(O)c3oc-2c1O [Pyrogallol red, pryrogallolsulfonephthalein]
inhibition at 100 µM [3]: 97% | inhibition at 100 µM [1]: 27%

C[C@@H]1O[C@@H](OC[C@H]2O[C@@H](Oc3c(-c4ccc(O)c(O)c4)oc4cc(O)cc(O)c4c3=O)[C@H](O)[C@@H](O)[C@@H]2O)[C@H](O)[C@H](O)[C@H]1O [Rutin]
inhibition at 100 µM [3]: 4% | inhibition at 100 µM [1]: 0%

CCCC/C=C\CCCCCCCC(=O)O [myristoleic acid]
Inhibition (percent decrease in macule area vs androgen-treated macules) [6]: 73% | Pigmented macule area [6]: 4.63 ± 0.66 mm^2

cis or traps-9,11 or 10,12 octadecadienoic acid [Conjugated Octadecadienonic Acid]
percent inhibition of 5α-reductase activity, cell-free assay, Type 1 [3]: 99% | pIC50 ([3]; read-out: Cell-free assay IC50, 5α-reductase Type 1, microsomes from rat 1A cells expressing human type 1 5α-reductase): 5.00 | percent inhibition of 5α-reductase activity, cell-free assay, Type 2 ([1]; 100 μM compound): 81% | pIC50 [1]: 4.52
